These results are taken from article PMC9822352, “Design, Synthesis and Evaluation of New Multifunctional Benzothiazoles as Photoprotective, Antioxidant and Antiproliferative Agents” (Molecules, 2022).

The nature of series [1]: UV spectra in solution (MeOH-DMSO): λmax and molar extinction coefficient. The series is classed as physicochemical. The following applies: for ε (molar extinction coefficient): at λmax, Lambert-Beer equation, in M-1 cm-1 (unit assumed); for λmax: solution in MeOH-DMSO, 290–400 nm. As to the method: We next investigated the protective potential against UV radiation of each compound. Specifically, in vitro tests were conducted to determine the parameters related to absorption in the UV spectrum and those fundamental to the relative evaluation of the filtering potential and thus candidature as possible UV sunscreen ingredients of the candidates under examination, including λ critical and SPF (sun protection factor). Since the SPF is correlated to the UV quantitative absorption of the substances, the wavelength of maximum absorption (λmax) and the molar extinction coefficient (ε) of the derivatives in solution (MeOH-DMSO) were evaluated (Figures S1 and S2, Supplementary Materials). The UV spectra of the compounds BZTidr1–6 and BZTcin1–5 were recorded in the UVA-UVB range (290–400 nm) to evaluate their profile and compare it to that of the PBSA, a commercial UVB filter that has a λmax of 302 nm. After this peak, the absorbance of PBSA drops, reaching almost zero in the 325 nm range, and thus not providing absorption in the UVA region.
Once the λmax of each derivative was established, the molar extinction coefficient ε was calculated by applying the Lambert-Beer equation (Table S1, Supplementary Materials): the higher this value, the greater the ability of the compound under examination to absorb UV radiation. […] The excellent values of BZTidr1, BZTidr2 and BZTidr3 are ascribed to the aforementioned hyperchromic shift. In regard to the BZTcin1–5 series, the molar extinction coefficients calculated were very high, and the best values were those of BZTcin1, BZTcin2 and BZTcin3, also attributable to the hyperchromic shift of the absorption spectra. For both series, the excellent absorption capacity of ultraviolet radiation can be traced back to the high π-type conjugation that characterizes them.

A short description of series [2]: In vitro filtering parameters of O/W sunscreen formulation containing 3% compound (modified Diffey-Robson, PMMA plates). The following applies: 3% in formulation, before irradiation. The source says: All synthesized compounds were formulated at 3% and their photoprotective efficacy, determined by spectrophotometric measurements using the modified Diffey-Robson method, was compared with that of the lead compound PBSA (used at 3% in the same formulation) and using the base without active as a control (Table 2).
The synthesized compounds were incorporated at a concentration of 3% in a typical oil-in-water sunscreen formulation, to evaluate the filtering parameters, and have the following ingredient composition:
INCI (International Nomenclature Cosmetic Ingredients): aqua, glycerin, Euxyl PE 9010, xanthan gum, Tribehenin PEG-20 Esters, cetearyl alcohol, dicaprylyl carbonate, PPG-26-Buteth-26 (and) PEG-40 Hydrogenated Castor Oil (and) water, C12-C15 Alkyl Benzoate, and Sodium hydroxide (sol. 10%).
As previously reported the protocol indicates to spread 32.5 mg of each formulation on 25 cm^2 PMMA plates with the fingers. Each formulation was tested in triplicate, and five measurements were recorded for each dish, following a 15–30 min incubation in the dark at room temperature. UV transmittance data was recorded using a UV-VIS spectrophotometer in the range 290–400 nm. The blank plate, SPF, UVA-PF and critical wavelength were obtained by SPF Calculator software (version 2.1), Shimadzu, Milan, Italy).

Series [3] is described as follows: FRAP (Ferric Reducing Antioxidant Power) assay. The following applies: Trolox standard, 37 °C 10 min, 593 nm; mean ± SEM. An excerpt: The FRAP (Ferric Reducing Antioxidant Power) test allows the measurement of the ability of antioxidants to reduce ferric ion to ferrous. This method represents one of the simplest, quickest and least expensive methods for the determination of reducing properties on oxidized species in vitro.
The FRAP test (Ferric Reducing Antioxidant Power) is based on a colorimetric reaction and evaluates the ability of a sample of reducing ferric ions to ferrous ion while complexed with TPTZ (2,4,6-trispyridil-s-triazine). The FRAP solution was prepared from 0.1 M acetate buffer (pH 3.6), 10 mmol/L of TPTZ in 40 mM HCl, and 20 mM solution of FeCl3, with a 10:1:1 ratio, as described. Then, 1.9 mL of this solution was incubated with 0.1 mL of the sample solution at 37 °C for 10 min. The absorbance was read with a UV-Vis spectrophotometer at a 593 nm wavelength, relative to the maximum peak of absorbance of Fe^2+-TPTZ complex. Trolox® was used as a standard and the results are expressed as µmolTE/g.

Series [4] is described as follows: DPPH radical scavenging test. The following applies: mean ± SEM; for DPPH (% Inhibition): compound at 1 mg/mL, 30 min, 517 nm. As to the method: The DPPH assay is widely used, and the simplest and fastest in vitro method for evaluating the antioxidant power of extracts or isolated compounds; it is based on the depletion of the 2,2-diphenyl-1-picrylhydrazyl radical (DPPH˙) by an antioxidant molecule with scavenger activity. This is an extremely sensitive test that can detect the activity of active ingredients present in very low concentrations.
The procedure used was adapted from Wang et al.. Briefly, 0.750 mL of a methanolic solution of each tested compound was treated with 1.5 mL of DPPH solution (0.004%) in MeOH. Samples were stored in the dark at room temperature for 30 min, and the absorbance value was read with a spectrophotometer at 517 nm, which is the maximum peak of absorbance relative to the DPPH radical absorption spectra. The values obtained were fitted into Equation (1) and converted to inhibition percentage (%) of the radical:DPPH inhibition percentage (%) = 100 × [1 − A1/A0](1) where A1 and A0 were, respectively, the absorbance recorded with and without the sample, which are directly proportional to DPPH residual concentration in the sample and DPPH concentration in the control (0.750 of MeOH and 1.5 mL of DPPH solution). […] A linear regression was performed to calculate the sample concentration able to eliminate 50% of DPPH free radicals.
For orientation: The DPPH test is a chemical assay of radical scavenging.

Values joined by “and” are separate entries in the source; they are usually repeats but may differ in a detail not shown here. Equal values may be shown once. Bounds are passed on as bounds.

Take `O=C(N/N=C/c1ccc(O)cc1)c1nc2ccccc2s1` [BZTidr2, (E)-N′-(4-hydroxybenzylidene)benzo[d]thiazole-2-carbohydrazide]: in series [1], the “ε (molar extinction coefficient)” value is recorded as 28637.64 and the λmax was found to be 335.3 nm. Moreover, in series [2], the SPF is given as 1.85, the UVA/UVB is listed as 1.09, the UVAPF0 is 1.96 and the λc came to 386 nm. The FRAP in series [3] is recorded as 1160.24 ± 17.34 µmolTE/g. The “DPPH (% Inhibition)” value in series [4] stood at 54.80 ± 1.63%.
As for `COc1ccc(/C=C/C(=O)Nc2nc3ccccc3s2)cc1O` [BZTcin5, (E)-N-(benzo[d]thiazol-2-yl)-3-(3-hydroxy-4-methoxyphenyl)acrylamide], in series [1], the “ε (molar extinction coefficient)” value worked out at 20688.20 and the λmax was determined as 342.0 nm. Moreover, in series [2], the SPF is recorded as 3.84, the UVA/UVB is reported as 1.11, the UVAPF0 came out at 3.61 and the λc came to 378 nm. The same molecule gave an FRAP in series [3] of 2043.33 ± 12.03 µmolTE/g. In addition, the “DPPH (% Inhibition)” value in series [4] is 40.15 ± 0.18%.
`O=C(/C=C/c1ccc(O)c(O)c1)Nc1nc2ccccc2s1` [BZTcin4, (E)-N-(benzo[d]thiazol-2-yl)-3-(3,4-dihydroxyphenyl)acrylamide]: in series [1], the “ε (molar extinction coefficient)” value came to 22387.64 and the λmax amounted to 347.7 nm. For the same molecule, in series [2], the SPF amounted to 9.70, the UVA/UVB is 1.39, the UVAPF0 turned out to be 11.40 and the λc was 380 nm. For the same molecule, the FRAP in series [3] was 4583.10 µmolTE/g and 4583.10 ± 22.68 µmolTE/g. Further, in series [4], the “DPPH (% Inhibition)” value is >90.00% and the “DPPH IC50” value was determined as 4.86 ± 0.38 µg/mL.
For the molecule `O=C(/C=C/c1ccc(O)cc1)Nc1nc2ccccc2s1` [BZTcin2, (E)-N-(benzo[d]thiazol-2-yl)-3-(4-hydroxyphenyl)acrylamide], in series [1], the “ε (molar extinction coefficient)” value turned out to be 32240.17 and the λmax worked out at 335.6 nm. In series [2], this molecule came in with an SPF of 12.26, a UVA/UVB of 1.49, a UVAPF0 of 11.79 and a λc of 380 nm. Also, in series [3], the FRAP was 43.73 ± 2.83 µmolTE/g. Moreover, the “DPPH (% Inhibition)” value in series [4] is 12.37 ± 0.00%.
